Converted amounts (≈) assume the structure as drawn. Like-named read-outs stand apart in the source and are kept apart here.
Tests used:
[1] = tested on: Candida albicans (standard strain SC5314); assay: In vitro bacteriostatic experiment (minimum in vitro antifungal concentration, MIC80); format: cell-based
Experimental: (I) Experimental method: The conventional in vitro bacteriostatic experiment method was adopted (for details, see: Antimicrob Agents Chemother 1995, 39 (5): 1169).
The fungal strain selected for this experiment was provided by the Fungal Department of Shanghai Changzheng Hospital (or purchased from the Institute of Materia Medica, Chinese Academy of Sciences).
Candida albicans (standard strain SC5314)
Preparation of bacterial suspension: The above fungi were cultured in YEPD liquid medium at 35° C. for 16 hours, activated twice, counted with a blood cell counting plate, and the bacteria concentration was adjusted to 1*10^4 to 1*10^5 cells/mL with RPM1640 liquid medium.
Preparation of drug solution: The test compound of the invention was dissolved in dimethyl sulfoxide to prepare a 0.8 mg/mL drug storage solution, and the 0.8 mg/mL drug storage solution was diluted to 8 μg/mL with RPM1640 before the experiment.
Inoculation: RPM1640 100 μL was added as a blank control in well 1 of the 96-well plate; 100 μL of the bacterial suspension was added in each of wells 3-12, 200 μL of the bacterial suspension and 2 μL of the drug solution were added in well 2 and the drug solution in wells 2-11 was diluted […], and the drug concentrations of these wells were 8, 4, 2, 1, 0.5, 0.25, 0.125, 0.0625, 0.0313, and 0.0156 μg/mL, respectively. No drug solution was added in well 12 to make positive control. The drug control was fluconazole.

[2] = in vitro; conditions: human, microsomes
[3] = human, microsomes
[4] = Candida albicans, SC5314, read-out: Minimum in vitro antifungal concentration (MIC80)

For `[2H]C(Oc1ccc(C#Cc2ccc(C(F)(F)[C@](O)(Cn3cnnn3)c3ccc(F)cc3F)nc2)cc1)c1ccc(C#N)cc1` (stereo partly drawn) [Compound D1], the MIC80 [1, 4] was 0.0156 µg/mL (≈ 0.0266 µM).

For `[2H]C([2H])(Oc1ccc(C#Cc2ccc(C(F)(F)[C@](O)(Cn3cnnn3)c3ccc(F)cc3F)nc2)cc1)c1ccc(C#N)cc1` [Compound D2], the MIC80 [1, 4] was 0.0156 µg/mL (≈ 0.0266 µM).

`[2H]C([2H])(n1cnnn1)C(O)(c1ccc(F)cc1F)C(F)(F)c1ccc(C#Cc2ccc(OCc3ccc(C#N)cc3)cc2)cn1` (stereo not drawn) [Compound D3] showed an MIC80 [1, 4] of 0.0313 µg/mL (≈ 0.0534 µM).

Work on `[2H]c1nnnn1CC(O)(c1ccc(F)cc1F)C(F)(F)c1ccc(C#Cc2ccc(OCc3ccc(C#N)cc3)cc2)cn1` (stereo not drawn) [Compound D5] yielded an MIC80 [1, 4] of 0.0156 µg/mL (≈ 0.0266 µM).

Work on `OC(Cn1cncn1)(Cn1cncn1)c1ccc(F)cc1F` [Fluconazole] yielded an MIC80 ([1]; Candida albicans SC5314, RPM1640 medium, 96-well dilution 8-0.0156 μg/mL, read-out: Minimum in vitro antifungal concentration (MIC80)) of 0.5 µg/mL (≈ 1.63 µM).

In the case of `Cc1ncc2n1-c1ccc(Cl)cc1C(c1ccccc1F)=NC2` [Midazolam], the half-life [2] was 0.212 h, the “CLint, microsome (in vitro intrinsic clearance)” value [3] was 274 μL × min^−1 × mg^−1 proteins and the “k (clearance constant)” value [3] was 0.0548 min⁻¹.

With `N#Cc1ccc(COc2ccc(C#Cc3ccc(C(F)(F)[C@](O)(Cn4cnnn4)c4ccc(F)cc4F)nc3)cc2)cc1` [VT-1598] the half-life at 1 μM [2] was 2.33 h, the MIC80 [1, 4] was 0.0156 µg/mL (≈ 0.0267 µM) and the “CLint, microsome (in vitro intrinsic clearance)” value [3] was 10.6 μL × min^−1 × mg^−1 proteins. For the same compound, the “k (clearance constant)” value [3] was 0.0053 min⁻¹.

Reference: patent US20200317636A1, “DEUTERATED AZOLE COMPOUNDS AND PREPARATION METHOD THEREFOR AND USES THEREOF” (priority 2017, published 2020)
